IC50 data for 20 compounds are collected here from US6251944A, “Para-substituted phenylene derivatives” (G. D. Searle & Company, priority 1999, dated 2001).

Structures can show the parent of a compound that is named as a salt. Some results are limits rather than exact numbers.

Test [1] concerns the target T1, Human vitronectin receptor(αvβ3) (Homo sapiens, UniProt P05106+P06756).
T1 construct: purified from human placenta; from tissue; host or cells: human placenta
The experiment in a line: Vitronectin adhesion assay (solid phase receptor assay, αvβ3). Particulars: inhibition of 50% of maximum binding of biotinylated vitronectin; highest concentration tested 1.0×10^-4 M; read-out: AvB3 IC50. On the procedure: The activity of the compounds of the present invention was tested in the following assays. […] Assay buffer, OPD substrate tablets, and RIA grade BSA were obtained from Sigma (St. Louis, Mo.). Anti-biotin antibody was obtained from Calbiochem (La Jolla, Calif.). Linbro microtiter plates were obtained from Flow Labs (McLean, Va.). ADP reagent was obtained from Sigma (St. Louis, Mo.). […] The purified human vitronectin receptor (αvβ3) was diluted from stock solutions to 1.0 μg/mL in Tris-buffered saline containing 1.0 mM Ca^++, Mg^++, and Mn^++, pH 7.4 (TBS^+++). The diluted receptor was immediately transferred to Linbro microtiter plates at 100 μL/well (100 ng receptor/well). The plates were sealed and incubated overnight at 4° C. to allow the receptor to bind to the wells. All remaining steps were at room temperature. The assay plates were emptied and 200 μL of 1% RIA grade BSA in TBS^+++ (TBS^+++ /BSA) were added to block exposed plastic surfaces. Following a 2 hour incubation, the assay plates were washed with TBS^+++ using a 96 well plate washer. […] The competition occurred for two hours after which all wells were washed with a plate washer as before. […] After 30 minutes, the plates were washed and incubated with OPD/H2 O2 substrate in 100 mM/L Citrate buffer, pH 5.0. […] The data were analyzed using a macro written for use with the EXCEL™ spreadsheet program. The mean, standard deviation, and % CV were determined for duplicate concentrations. The mean A450 values were normalized to the mean of four maximum-binding controls (no competitor added)(B-MAX). The normalized values were subjected to a four parameter curve fit algorithm [Rodbard et al., Int. […] Ser.

For test [2], the target named is T2, Human fibrinogen receptor (αIIbβ3) (Homo sapiens, UniProt P05106+P08514).
T2 construct: purified from outdated platelets; from tissue; host or cells: outdated platelets (human)
T2 sequence (P08514 32-887 limits assumed): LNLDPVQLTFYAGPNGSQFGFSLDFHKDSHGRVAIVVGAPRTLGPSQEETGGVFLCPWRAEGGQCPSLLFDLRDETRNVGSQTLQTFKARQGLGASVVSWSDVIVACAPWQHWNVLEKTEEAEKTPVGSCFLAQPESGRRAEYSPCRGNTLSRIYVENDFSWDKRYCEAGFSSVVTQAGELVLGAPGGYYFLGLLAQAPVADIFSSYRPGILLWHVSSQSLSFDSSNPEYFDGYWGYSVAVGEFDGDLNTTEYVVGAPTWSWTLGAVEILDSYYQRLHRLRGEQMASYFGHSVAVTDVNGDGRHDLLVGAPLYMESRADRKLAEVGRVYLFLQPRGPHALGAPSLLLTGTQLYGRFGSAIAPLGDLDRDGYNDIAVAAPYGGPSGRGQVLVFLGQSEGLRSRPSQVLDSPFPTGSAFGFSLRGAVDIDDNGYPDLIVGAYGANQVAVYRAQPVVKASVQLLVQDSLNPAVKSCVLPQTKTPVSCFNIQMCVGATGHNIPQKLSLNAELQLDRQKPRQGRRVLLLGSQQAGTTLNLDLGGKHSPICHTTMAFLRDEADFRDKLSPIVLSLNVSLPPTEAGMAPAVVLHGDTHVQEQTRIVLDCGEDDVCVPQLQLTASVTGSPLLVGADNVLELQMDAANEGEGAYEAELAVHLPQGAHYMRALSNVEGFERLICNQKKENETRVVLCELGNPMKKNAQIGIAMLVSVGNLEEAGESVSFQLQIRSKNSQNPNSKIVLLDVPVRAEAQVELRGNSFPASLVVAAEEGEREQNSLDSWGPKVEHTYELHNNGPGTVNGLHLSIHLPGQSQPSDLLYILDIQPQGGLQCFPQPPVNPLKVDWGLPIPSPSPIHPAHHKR
T2 sequence (P08514 891-1039 limits assumed): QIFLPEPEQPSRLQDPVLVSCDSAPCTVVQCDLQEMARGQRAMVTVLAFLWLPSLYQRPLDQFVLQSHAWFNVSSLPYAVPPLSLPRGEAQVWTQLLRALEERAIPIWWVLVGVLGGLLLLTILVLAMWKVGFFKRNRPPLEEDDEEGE
T2 sequence (P05106 27-788): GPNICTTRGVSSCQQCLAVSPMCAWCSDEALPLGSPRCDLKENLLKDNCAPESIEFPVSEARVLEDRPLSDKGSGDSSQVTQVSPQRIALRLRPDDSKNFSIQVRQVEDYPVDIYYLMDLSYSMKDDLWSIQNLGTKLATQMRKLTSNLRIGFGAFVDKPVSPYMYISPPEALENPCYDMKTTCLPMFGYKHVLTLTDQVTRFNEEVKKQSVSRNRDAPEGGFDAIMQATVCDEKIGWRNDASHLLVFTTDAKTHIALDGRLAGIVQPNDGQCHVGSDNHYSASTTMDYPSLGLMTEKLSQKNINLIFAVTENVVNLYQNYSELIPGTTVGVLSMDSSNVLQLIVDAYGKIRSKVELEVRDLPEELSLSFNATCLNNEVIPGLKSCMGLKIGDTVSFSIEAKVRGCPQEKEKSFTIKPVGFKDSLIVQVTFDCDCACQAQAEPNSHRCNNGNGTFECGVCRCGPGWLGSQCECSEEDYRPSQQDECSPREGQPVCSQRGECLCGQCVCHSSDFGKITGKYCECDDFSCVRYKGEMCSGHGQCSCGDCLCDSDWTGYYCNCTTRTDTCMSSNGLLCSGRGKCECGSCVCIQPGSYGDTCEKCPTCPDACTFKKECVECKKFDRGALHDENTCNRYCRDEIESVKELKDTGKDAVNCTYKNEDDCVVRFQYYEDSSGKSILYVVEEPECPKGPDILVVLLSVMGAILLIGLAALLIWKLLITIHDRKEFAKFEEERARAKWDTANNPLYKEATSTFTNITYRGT
The experiment in a line: Purified IIb/IIIa receptor assay (solid phase receptor assay). Particulars: inhibition of 50% of maximum binding of biotinylated vitronectin; highest concentration tested 1.0×10^-4 M. As to the method: The activity of the compounds of the present invention was tested in the following assays.
Human fibrinogen receptor (αIIbβ3) was purified from outdated platelets. […] Biotinylated human vitronectin was prepared by coupling NHS-biotin from Pierce Chemical Company (Rockford, Ill.) to purified vitronectin as previously described. […] Anti-biotin antibody was obtained from Calbiochem (La Jolla, Calif.). Linbro microtiter plates were obtained from Flow Labs (McLean, Va.). ADP reagent was obtained from Sigma (St. Louis, Mo.).
Solid Phase Receptor Assays
The purified human fibrinogen receptor (αIIbβ3) was diluted from stock solutions to 1.0 μg/mL in Tris-buffered saline containing 1.0 mM Ca^++, Mg^++, and Mn^++, pH 7.4 (TBS^+++). The diluted receptor was immediately transferred to Linbro microtiter plates at 100 μL/well (100 ng receptor/well). The plates were sealed and incubated overnight at 4° C. to allow the receptor to bind to the wells. All remaining steps were at room temperature. The assay plates were emptied and 200 μL of 1% RIA grade BSA in TBS^+++ (TBS^+++ /BSA) were added to block exposed plastic surfaces. Following a 2 hour incubation, the assay plates were washed with TBS^+++ using a 96 well plate washer. Logarithmic serial dilution of the test compound and controls were made starting at a stock concentration of 2 mM and using 2 nM biotinylated vitronectin in TBS^+++ /BSA as the diluent. This premixing of labeled ligand with test (or control) ligand, and subsequent transfer of 50 μL aliquots to the assay plate was carried out with a CETUS Propette robot; the final concentration of the labeled ligand was 1 nM and the highest concentration of test compound was 1.0×10^-4 M. The competition occurred for two hours after which all wells were washed with a plate washer as before. Affinity purified horseradish peroxidase labeled goat anti-biotin antibody was diluted 1:3000 in TBS^+++ /BSA and 125 μL were added to each well. After 30 minutes, the plates were washed and incubated with […]/H2 O2 substrate in 100 mM/L citrate buffer, pH 5.0. The plate was read with a microtiter plate reader at a wavelength of 450 nm and when the maximum-binding control wells reached an absorbance of about 1.0, the final A450 were recorded for analysis. The data were analyzed using a macro written for use with the EXCEL™ spreadsheet program. The mean, standard deviation, and % CV were determined for duplicate concentrations. The mean A450 values were normalized to the mean of four maximum-binding controls (no competitor added) (B-MAX). The normalized values were subjected to a four parameter curve fit algorithm, [Robard et al., Int.

T1 sequence (P06756 31-889 limits assumed): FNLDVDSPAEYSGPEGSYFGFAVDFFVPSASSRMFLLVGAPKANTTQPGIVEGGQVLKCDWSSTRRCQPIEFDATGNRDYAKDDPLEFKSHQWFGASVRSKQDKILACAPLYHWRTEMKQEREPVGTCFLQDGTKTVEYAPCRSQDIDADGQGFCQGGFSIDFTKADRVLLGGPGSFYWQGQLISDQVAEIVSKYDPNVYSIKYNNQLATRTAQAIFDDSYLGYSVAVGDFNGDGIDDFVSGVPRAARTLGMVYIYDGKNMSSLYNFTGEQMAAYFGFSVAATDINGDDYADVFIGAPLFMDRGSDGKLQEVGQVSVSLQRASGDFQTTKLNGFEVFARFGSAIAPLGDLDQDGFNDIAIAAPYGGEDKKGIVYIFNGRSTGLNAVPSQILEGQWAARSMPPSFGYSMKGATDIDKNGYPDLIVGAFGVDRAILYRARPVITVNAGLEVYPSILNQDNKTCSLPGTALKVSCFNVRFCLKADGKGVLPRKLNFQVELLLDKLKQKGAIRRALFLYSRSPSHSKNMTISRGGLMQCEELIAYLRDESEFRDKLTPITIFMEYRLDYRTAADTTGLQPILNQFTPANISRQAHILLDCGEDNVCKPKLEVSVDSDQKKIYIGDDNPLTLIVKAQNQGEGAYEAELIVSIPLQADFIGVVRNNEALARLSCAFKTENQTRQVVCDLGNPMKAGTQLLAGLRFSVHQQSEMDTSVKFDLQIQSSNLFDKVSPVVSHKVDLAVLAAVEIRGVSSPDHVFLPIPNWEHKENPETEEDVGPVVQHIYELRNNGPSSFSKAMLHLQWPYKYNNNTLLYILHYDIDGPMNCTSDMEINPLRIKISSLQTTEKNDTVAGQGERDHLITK
T1 sequence (P06756 891-1048 limits assumed): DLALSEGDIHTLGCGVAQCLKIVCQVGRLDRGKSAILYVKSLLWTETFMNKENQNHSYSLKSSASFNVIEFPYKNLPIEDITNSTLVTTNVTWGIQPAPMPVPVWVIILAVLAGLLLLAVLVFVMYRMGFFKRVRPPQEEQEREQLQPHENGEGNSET
T1 sequence (P05106 27-788): as the sequence (P05106 27-788) above

As for `CC(C)COC(=O)NC(Cc1ccc(NC(=O)c2cc(NC(=N)N)cc(C(F)(F)F)c2)cc1)C(=O)O` (stereo not shown) [Example 2, 4-[[[3-[(aminoiminomethyl)amino]-5-(trifluoromethyl)phenyl]carbonyl]amino]-N-[(2-methylpropoxy)carbonyl]phenylalanine, trifluoroacetate Salt], the IC50 in test [1] worked out at 0.18 nM; in test [2], 8.08 nM.

As to `CCCCS(=O)(=O)NC(Cc1ccc(OCc2cccc(NC(=N)N)c2)cc1)C(=O)O` (stereo not shown) [Example 11, O-[[3-[(aminoiminomethyl)amino]-phenyl]methyl]-N-(butylsulfonyl)tyrosine, trifluoroacetate Salt monohydrate], the values for the IC50 in test [1] and in test [2] were 2.2 nM and 4 nM, respectively.

With `N=C(N)c1cccc(C(=O)Nc2ccc(CCC(=O)O)cc2)c1` [Example 20, 4-[[[3-(Aminoiminomethyl)phenyl]carbonyl]-amino]benzenepropanoic Acid], the IC50 in test [1] is above 100000 nM; in test [2], 39900 nM.

For `CC(CC(=O)OC(C)(C)C)c1ccc(NC(=O)c2cccc(NC(=N)N)c2)cc1` (stereo not drawn) [Example 30, 1,1-dimethylethyl 4-[[[3-[(aminoiminomethyl)amino]phenyl]carbonyl]amino]-β-methylbenzenepropanoate, trifluoroacetate Salt], the IC50 in test [1] turned out to be 6370 nM; in test [2] it was 3260 nM.

`CC(=O)NC(Cc1ccc(NC(=O)c2cccc(NC(=N)N)c2)cc1)C(=O)O` (stereo not shown) [Example 35, N-acetyl-4-[[[3-[(aminoiminomethyl)amino]-phenyl]carbonyl]amino]phenylalanine, trifluoroacetate Salt]: the IC50 stood at 2.69 nM in test [1] and 148 nM in test [2].

As to `CCOC(=O)C(Cc1ccc(NC(=O)c2cccc(NC(=N)N)c2)cc1)NC(=O)c1ccccc1` (stereo not shown) [Example 36, 4-[[[3-[(aminoiminomethyl)amino]phenyl]-carbonyl]amino]-N-(phenylcarbonyl)phenylalanine Ethyl Ester, monohydrate trifluoroacetate Salt], the values for the IC50 in test [1] and in test [2] were 1010 nM and 10500 nM, respectively.

For the compound `CCOC(=O)C(Cc1ccc(NC(=O)c2cccc(NC(=N)N)c2)cc1)NS(C)(=O)=O` (stereo not shown) [Example 37, 4-[[[3-[(aminoiminomethyl)amino]phenyl]carbonyl]amino]-N-(methylsulfonyl)phenylalanine Ethyl Ester, monohydrate trifluoroacetate Salt], the IC50 in test [1] is 97.8 nM; in test [2], 2380 nM.

`CCOC(=O)NC(Cc1ccc(NC(=O)c2cccc(NC(=N)N)c2)cc1)C(=O)OCC` (stereo not shown) [Example 38, 4-[[[3-[(aminoiminomethyl)amino]phenyl]-carbonyl]amino]-N-(ethoxycarbonyl)phenylalanine Ethyl Ester, trifluoroacetate Salt]: the figures for the IC50 in test [1] and in test [2] were 106 nM and 3360 nM, respectively.

As to `CCOC(=O)C(Cc1ccc(NC(=O)c2cccc(NC(=N)N)c2)cc1)NS(=O)(=O)c1ccccc1` (stereo not shown) [Example 40, 4-[[[3-[(aminoiminomethyl)amino]phenyl]-carbonyl]amino]-N-(phenylsulfonyl)phenylalanine Ethyl Ester, monohydrate trifluoroacetate Salt], the IC50 in test [1] is 557 nM; in test [2], 748 nM.

For `COC(=O)[C@H](Cc1ccc(NC(=O)c2cccc(NC(=N)N)c2)cc1)NC(=O)OC(C)(C)C` [Example 45, 4-[[[3-[(aminoiminomethyl)amino]phenyl]-carbonyl]amino]-N-[(1,1-dimethylethoxy)carbonyl]-L-phenylalanine, methyl Ester, trifluoroacetate Salt], the results for the IC50 in test [1] and in test [2] were 39.4 nM and 603 nM, respectively.

With `CC(C)COC(=O)NC(Cc1ccc(NC(=O)c2cccc(NC(=N)N)c2)cc1)C(=O)O` (stereo not shown) [Example 53, 4-[[[3-[(aminoiminomethyl)amino]phenyl]-carbonyl]amino]-N-[(2-methylpropoxy)carbonyl]-phenylalanine, trifluoroacetate Salt], the IC50 in test [1] was found to be 0.56 nM; in test [2] it was 15.3 nM.

Take `COC(=O)NC(Cc1ccc(NC(=O)c2cccc(NC(=N)N)c2)cc1)C(=O)O` (stereo not shown) [Example 54, 4-[[[3-[(aminoiminomethyl)amino]phenyl]carbonyl]amino]-N-(methoxycarbonyl)phenylalanine, trifluoroacetate Salt]: the results for the IC50 in test [1] and in test [2] were 0.77 nM and 36.5 nM, respectively.

`N=C(N)Nc1cccc(C(=O)Nc2ccc(C(CC(=O)O)C(=O)O)cc2)c1` (stereo not shown) [Example 69, [4-[[[3-[(aminoiminomethyl)amino]-phenyl]carbonyl]amino]phenyl]butanedioicAcid, trifluoroacetate Salt]: the values for the IC50 in test [1] and in test [2] were 94 nM and 37 nM, respectively.

For the compound `N=C(N)Nc1cccc(C(=O)Nc2ccc(C(CC(=O)O)C(=O)NCC(=O)O)cc2)c1` (stereo not drawn) [Example 73, 4-[[[3-[(aminoiminomethyl)amino]phenyl]-carbonyl]amino]-beta-[[(carboxymethyl)amino]carbonyl]-benzenepropanoic Acid, trifluoroacetate Salt], the IC50 in test [1] is 141 nM; in test [2] it was 40 nM.

Consider `N=C(N)Nc1cccc(C(=O)Nc2ccc(CCC(=O)O)cc2O)c1` [Example 75, 4-[[[3-[(aminoiminomethyl)amino]phenyl]-carbonyl]amino]-3-hydroxybenzenepropanoic Acid, trifluoroacetate Salt], for which the concentration for half-maximal inhibition (IC50) in test [1] is 14.5 nM; in test [2], 330 nM.

Turning to `N=C(N)Nc1cccc(C(=O)Nc2ccc(OCC(=O)O)cc2)c1` [Example 81, [4-[[[3-[(aminoiminomethyl)amino]phenyl]-carbonyl]amino]phenoxy]acetic Acid, trifluoroacetate Salt], the IC50 in test [1] stood at 19.1 nM; in test [2], 129 nM.

`N=C(N)Nc1cccc(C(=O)Nc2ccc(S(=O)(=O)CC(=O)O)cc2)c1` [Example 83, [[4-[[[3-[(aminoiminomethyl)amino]phenyl]carbonyl]amino]phenyl]sulfonyl]acetic Acid]: the IC50 came out at 1900 nM in test [1] and 474 nM in test [2].

For the compound `CCOC(=O)C(Oc1ccc(NC(=O)c2cccc(NC(=N)N)c2)cc1)c1ccccc1` (stereo not drawn) [Example 86C, ethyl α-[4-[[[3-[(aminoiminomethyl)amino]phenyl]carbonyl]amino]phenoxy]benzeneacetate, trifluoroacetate Salt], the figures for the IC50 in test [1] and in test [2] were 56800 nM and above 100000 nM, respectively.

`CC(C)OC(=O)NC(Cc1ccc(NC(=O)c2ccc(Cl)c(NC(=N)N)c2)cc1)C(=O)O` (stereo not shown) [Example 87, 4[[[3-[(aminoiminomethyl)amino]-4-chlorophenyl]carbonyl]amino]-N-[(1-methylethoxy)carbonyl]phenylalanine]: the figures for the IC50 in test [1] and in test [2] were 0.44 nM and 85.3 nM, respectively.

Regarding `CCOC(=O)CSc1ccc(NC(=O)c2cccc(NC(=N)N)c2)cc1` [Example 90, ethyl[[4-[[(3-[(aminoiminomethyl)amino]phenyl]carbonyl]amino]phenyl]thio]acetic Acid, trifluoroacetate], the IC50 came out at 23700 nM in test [1] and 34500 nM in test [2].

As a reminder, the IC50 is the concentration at which inhibition is half-maximal.
